Assay results reported in patent publication US20200385371A1 (Propellon Therapeutics Inc., priority 2017, published 2020).

Columns and labels:
WDR5 [1] = molecular target: T1, WDR5 (Homo sapiens, UniProt P61964); assay: Surface Plasmon Resonance (SPR) assay; assay type: binding; set-up: Full length WDR5 with an N-terminal His tag and C-terminal AviTag; His tag (N); made in house; host or cells: E. coli; conditions: read-out: SPR Kd
Procedure, shortened: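 Full-length biotinylated WDR5 (N-His, C-AviTag, E. coli) captured (~3000 RU) on streptavidin SA chip; Biacore T200. HBS-EP pH 7.4 plus 5% DMSO running buffer, 40 μl/min.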

MV4-11 cells = assay: Cell proliferation assay (ATPlite); assay type: cell-based; conditions: Homo sapiens, 120 h; MV4-11 cells, five days; read-out: GI MV411 EC50
Procedure, shortened: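 Cells seeded at 1,000/well in Alpha-MEM with 10% FBS, treated with compound over a 10-point range (top 10 μM) or DMSO. Grown five days at 37° C, 5% CO2; viability by ATPlite luminescence.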

WDR5 [2] = molecular target: T1, WDR5; assay: Fluorescence Polarization (FP) binding assay
Procedure, shortened: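 Displacement of fluorescein-labelled H3 (1-15) (30 nM, with 0.3 μM WDR5) or 9-Ala-FAM (20 nM, with 0.05 μM WDR5) in 80 mM sodium phosphate pH 6.5, 20 mM KCl, 0.008% Triton X-100. FP read at 485/528 nm (H3) or 480/540 nm (9-Ala-FAM); Kdisp from hyperbolic fit, mean of quadruplicates.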

| Structure (SMILES) | Kd (WDR5 [1]) [µM] | EC50 (MV4-11 cells) [µM] | IC50 (WDR5 [2]) [µM] |
| --- | --- | --- | --- |
| CC(C)[C@H]1CN(c2ncc(-c3c(F)cc(N4CCN(C)[C@@H](C)C4)c(NC(=O)c4c[nH]c(=O)cc4C(F)F)c3F)cn2)CCO1 [Example 121, 4-(Difluoromethyl)-N-(6-((S)-3,4-dimethylpiperazin-1-yl)-2,4-difluoro-3-(2-((S)-2-isopropylmorpholino)pyrimidin-5-yl)phenyl)-6-oxo-1,6-dihydropyridine-3-carboxamide] | 0.00107 | 0.0157 | 0.0119 |
| C[C@@H]1CN(c2ncc(-c3c(F)cc(N4CCN(C)[C@@H](C)C4)c(NC(=O)c4ccc(F)cc4C(F)F)c3F)cn2)C[C@@H](C)O1 [Example 158, 2-(Difluoromethyl)-N-(3-(2-((2R,6R)-2,6-dimethylmorpholino)pyrimidin-5-yl)-6-((S)-3,4-dimethylpiperazin-1-yl)-2,4-difluorophenyl)-4-fluorobenzamide] | 0.00043 | 0.0883 | 0.014 |
| C[C@@H]1CN(c2cc(F)c(C3=CCN(C(=O)OC4(C)CCC4)C3)c(F)c2NC(=O)c2c[nH]c(=O)cc2C(F)(F)F)C[C@H](C)N1C [Example 141, 1-Methylcyclobutyl 3-(2,6-difluoro-3-(6-oxo-4-(trifluoromethyl)-1,6-dihydropyridine-3-carboxamido)-4-((3S,5R)-3,4,5-trimethylpiperazin-1-yl)phenyl)-2,5-dihydro-1H-pyrrole-1-carboxylate] | 0.00096 | 0.0312 | 0.0101 |
| COc1cc(N2CC=C(c3c(F)cc(N4CCN(C)[C@@H](C)C4)c(NC(=O)c4c[nH]c(=O)cc4C(F)(F)F)c3F)CC2)ncn1 [Example 76, (S)—N-(6-(3,4-dimethylpiperazin-1-yl)-2,4-difluoro-3-(1-(6-methoxypyrimidin-4-yl)-1,2,3,6-tetrahydropyridin-4-yl)phenyl)-6-oxo-4-(trifluoromethyl)-1,6-dihydropyridine-3-carboxamide] | 0.00142 | 0.042 | 0.0216 |
| C[C@@H]1CN(c2cc(F)c(-c3cnc(N4CCO[C@@H](C)C4)nc3)c(F)c2NC(=O)c2c[nH]c(=O)cc2C(F)F)C[C@H](C)N1C [Example 125, N-(2,4-difluoro-3-(2-((S)-2-methylmorpholino)pyrimidin-5-yl)-6-((3S,5R)-3,4,5-trimethylpiperazin-1-yl)phenyl)-4-(difluoromethyl)-6-oxo-1,6-dihydropyridine-3-carboxamide] | 0.00069 | 0.0194 | 0.0119 |
| C[C@@H]1CN(c2cc(F)c(-c3cnc(N4CCC(F)(F)CC4)nc3)c(F)c2NC(=O)c2c[nH]c(=O)cc2C(F)(F)F)C[C@H](C)N1C [Example 61, N-(3-(2-(4,4-difluoropiperidin-1-yl)pyrimidin-5-yl)-2,4-difluoro-6-((3S,5R)-3,4,5-trimethylpiperazin-1-yl)phenyl)-6-oxo-4-(trifluoromethyl)-1,6-dihydropyridine-3-carboxamide] | 0.00126 | 0.0229 | 0.0117 |
| C[C@H]1CN(c2ncc(-c3c(F)cc(N4CCN(C)[C@@H](C)C4)c(NC(=O)c4ccc(F)cc4C(F)F)c3F)cn2)C[C@H](C)O1 [Example 157, 2-(Difluoromethyl)-N-(3-(2-((2S,6S)-2,6-dimethylmorpholino)pyrimidin-5-yl)-6-((S)-3,4-dimethylpiperazin-1-yl)-2,4-difluorophenyl)-4-fluorobenzamide] | 0.00022 | 0.0656 | 0.0161 |
| C[C@H]1CN(c2cc(F)c(-c3ccc4c(c3)OCO4)c(F)c2NC(=O)c2c[nH]c(=O)cc2C(F)(F)F)CCN1C [Example 184, (S)—N-(3-(benzo[d][1,3]dioxol-5-yl)-6-(3,4-dimethylpiperazin-1-yl)-2,4-difluorophenyl)-6-oxo-4-(trifluoromethyl)-1,6-dihydropyridine-3-carboxamide] | 0.00117 | 0.0903 | 0.0255 |
| CC(C)[C@H]1CN(c2ncc(-c3c(F)cc(N4CCN(C)[C@@H](C)C4)c(NC(=O)c4c[nH]c(=O)cc4C(F)(F)F)c3F)cn2)CCO1 [Example 102, N-(6-((S)-3,4-dimethylpiperazin-1-yl)-2,4-difluoro-3-(2-((S)-2-isopropylmorpholino)pyrimidin-5-yl)phenyl)-6-oxo-4-(trifluoromethyl)-1,6-dihydropyridine-3-carboxamide] | 0.00044 | 0.0143 | 0.0117 |
| C[C@@H]1CN(c2cc(F)c(-c3ccc(N4CCO[C@@H](C)C4)nc3)c(F)c2NC(=O)c2c[nH]c(=O)cc2C(F)(F)F)C[C@H](C)N1C [Example 192, N-(2,4-difluoro-3-(6-((S)-2-methylmorpholino)pyridin-3-yl)-6-((3S,5R)-3,4,5-trimethylpiperazin-1-yl)phenyl)-6-oxo-4-(trifluoromethyl)-1,6-dihydropyridine-3-carboxamide] | 0.00097 | 0.0701 | 0.0164 |
| C[C@H]1CN(c2ccc(-c3c(F)cc(N4CCN(C)[C@@H](C)C4)c(NC(=O)c4ccc(F)cc4C(F)F)c3F)cn2)CCO1 [Example 179, 2-(Difluoromethyl)-N-(6-((S)-3,4-dimethylpiperazin-1-yl)-2,4-difluoro-3-(6-((S)-2-methylmorpholino)pyridin-3-yl)phenyl)-4-fluorobenzamide] | 0.00159 | 0.141 | 0.0201 |
| C[C@@H]1CN(c2cc(F)c(-c3cnc(N4C[C@H](C)O[C@@H](C)C4)nc3)c(F)c2NC(=O)c2c[nH]c(=O)cc2C(F)F)C[C@H](C)N1C [Example 120, 4-(Difluoromethyl)-N-(3-(2-((2S,6S)-2,6-dimethylmorpholino)pyrimidin-5-yl)-2,4-difluoro-6-((3S,5R)-3,4,5-trimethylpiperazin-1-yl)phenyl)-6-oxo-1,6-dihydropyridine-3-carboxamide] | 0.00135 | 0.00207 | 0.012 |
| C[C@@H]1CN(c2ncc(-c3c(F)cc(N4C[C@@H](C)N(C)[C@@H](C)C4)c(NC(=O)c4c[nH]c(=O)cc4C(F)F)c3F)cn2)CCO1 [Example 130, N-(2,4-difluoro-3-(2-((R)-2-methylmorpholino)pyrimidin-5-yl)-6-((3S,5R)-3,4,5-trimethylpiperazin-1-yl)phenyl)-4-(difluoromethyl)-6-oxo-1,6-dihydropyridine-3-carboxamide] | 0.00055 | 0.0102 | 0.00892 |
| C[C@@H]1CN(c2cc(F)c(C3=CCCN(C(=O)c4csc(CN(C)C)n4)C3)c(F)c2NC(=O)c2c[nH]c(=O)cc2C(F)(F)F)C[C@H](C)N1C [Example 189, N-(3-(1-(2-((dimethylamino)methyl)thiazole-4-carbonyl)-1,2,5,6-tetrahydropyridin-3-yl)-2,4-difluoro-6-((3S,5R)-3,4,5-trimethylpiperazin-1-yl)phenyl)-6-oxo-4-(trifluoromethyl)-1,6-dihydropyridine-3-carboxamide] | 0.00151 | 0.487 | 0.0127 |
| C[C@@H]1CN(c2ncc(-c3c(F)cc(N4CCN(C)[C@@H](C)C4)c(NC(=O)c4c[nH]c(=O)cc4C(F)(F)F)c3F)cn2)C[C@H](C)O1 [Example 55, N-(3-(2-((2S,6R)-2,6-dimethylmorpholino)pyrimidin-5-yl)-6-((S)-3,4-dimethylpiperazin-1-yl)-2,4-difluorophenyl)-6-oxo-4-(trifluoromethyl)-1,6-dihydropyridine-3-carboxamide] | 0.00078 | 0.0238 | 0.0148 |
| C[C@H]1CN(c2cc(F)c(C3=CCN(C(=O)OC4CC(F)(F)C4)C3)c(F)c2NC(=O)c2c[nH]c(=O)cc2C(F)(F)F)CCN1C [Example 45, 3,3-Difluorocyclobutyl (S)-3-(4-(3,4-dimethylpiperazin-1-yl)-2,6-difluoro-3-(6-oxo-4-(trifluoromethyl)-1,6-dihydropyridine-3-carboxamido)phenyl)-2,5-dihydro-1H-pyrrole-1-carboxylate] | 0.00132 | 0.0767 | 0.0121 |
| C[C@@H]1CN(c2cc(F)c(-c3cnc(N(C)C)nc3)c(F)c2NC(=O)c2c[nH]c(=O)cc2C(F)(F)F)C[C@H](C)N1C [Example 70, N-(3-(2-(dimethylamino)pyrimidin-5-yl)-2,4-difluoro-6-((3S,5R)-3,4,5-trimethylpiperazin-1-yl)phenyl)-6-oxo-4-(trifluoromethyl)-1,6-dihydropyridine-3-carboxamide] | 0.00091 | 0.0267 | 0.0165 |
| C[C@H]1CN(c2cc(F)c(-c3cnc(N4CC5CCC(C4)O5)nc3)c(F)c2NC(=O)c2c[nH]c(=O)cc2C(F)F)CCN1C [Example 155, (S)—N-(3-(2-(8-oxa-3-azabicyclo[3.2.1]octan-3-yl)pyrimidin-5-yl)-6-(3,4-dimethylpiperazin-1-yl)-2,4-difluorophenyl)-4-(difluoromethyl)-6-oxo-1,6-dihydropyridine-3-carboxamide-] | 0.00121 | 0.074 | 0.0112 |
| C[C@@H]1CN(c2ccc(-c3c(F)cc(N4C[C@@H](C)N(C)[C@@H](C)C4)c(NC(=O)c4c[nH]c(=O)cc4C(F)F)c3F)cn2)CCO1 [Example 190, N-(2,4-difluoro-3-(6-((R)-2-methylmorpholino)pyridin-3-yl)-6-((3S,5R)-3,4,5-trimethylpiperazin-1-yl)phenyl)-4-(difluoromethyl)-6-oxo-1,6-dihydropyridine-3-carboxamide] | 0.00096 | 0.0486 | 0.0128 |
